Columns and labels:
Type in all cases: biochemical
QR1 (NQO1) [1] = target: T1, QR1 (NQO1) (Homo sapiens, UniProt P15559); assay: Selectivity assay with QR1 in place of QR2, absorbance readout
T1 construct: purchased Sigma-Aldrich
Method: (§1) The enzymatic activity of QR2 (10 nM) was measured using menadione (both Sigma-Aldrich) as substrate and dihydrobenzylnicotamide (BNAH; Tocris) as co-substrate (Boutin et al., 2005). The reaction was performed in 50 mM Tris HCl, 150 mM NaCl 0.01% Tween-20 pH=8.5 (Sigma-Aldrich) at room temperature. Briefly, 3 μL of menadione alone (200 μM) or a mixture of menadione and QR2 (200 μM of menadione and 10 nM of QR2) were dispensed in 1536-well black Nunc plates (Thermo-Fisher) using a Multidrop™ Combi Reagent Dispenser (Thermo-Fisher) and pre-incubated with compounds for 10 min. BNAH (200 μM) was then added (3 μL) to the reaction using a BioNex Solutions BNX 1536 plate washer and the plates were incubated for another 10 min. […] The initial HTS was done with approximately 200,000 compounds at a single concentration of 5 μM. The chemical libraries used were Selleck Chemicals Bioactives, the Drug-like set from Enamine, HitFinder collection from Maybridge, Spectrum Collection from Microsource, Lopac from Sigma-Aldrich and the diversity sets from ChemDiv and ChemBridge. Initial “hit” compounds were defined as causing >30% reduction of enzyme activity. Compounds suspected to be fluorescent were re-assayed in an absorbance assay at 350 nm using the same reaction but in a higher volume (100 μL), in a transparent plate (Greiner Bio-One). “Hit” compounds resulting from both the fluorescence and absorbance assay were tested in a dose-response, and median inhibition concentration (IC50) values were determined. In parallel, the same dose response was used in a selectivity assay where QR2 enzyme was replaced by QR1 (also known as—NQO1, 10 nM; Sigma-Aldrich).
(§2) In order to establish a varied, flexible and chemically amenable starting point from which to develop such inhibitors, the inventors ran a standardized QR2 assay (see methods) against ˜200,000 compounds, from a varied assortment of chemical libraries. […] Compounds that replicated the initial hit result were then assayed similarly, against NQO1, to evaluate compound specificity (FIG. 1B). From the HTS, a series of compounds containing a sulfonamide central linker, with an amine on one side and a heterocycle on the other, were identified and selected for SAR development (FIG. 1C).

QR2 [2] = target: T2, QR2 (Homo sapiens, UniProt P16083); assay: QR2 enzymatic activity assay (menadione/BNAH), fluorescence readout; parameters: purchased Sigma-Aldrich
T2 sequence (P16083 1-231): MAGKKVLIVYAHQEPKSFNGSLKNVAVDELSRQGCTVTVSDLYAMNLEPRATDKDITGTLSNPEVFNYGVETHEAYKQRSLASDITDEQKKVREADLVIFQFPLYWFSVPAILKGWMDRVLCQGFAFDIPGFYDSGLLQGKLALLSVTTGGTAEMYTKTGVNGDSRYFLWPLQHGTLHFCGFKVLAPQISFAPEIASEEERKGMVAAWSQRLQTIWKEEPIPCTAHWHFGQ
Method: (§3) The enzymatic activity of QR2 (10 nM) was measured using menadione (both Sigma-Aldrich) as substrate and dihydrobenzylnicotamide (BNAH; Tocris) as co-substrate (Boutin et al., 2005). The reaction was performed in 50 mM Tris HCl, 150 mM NaCl 0.01% Tween-20 pH=8.5 (Sigma-Aldrich) at room temperature. Briefly, 3 μL of menadione alone (200 μM) or a mixture of menadione and QR2 (200 μM of menadione and 10 nM of QR2) were dispensed in 1536-well black Nunc plates (Thermo-Fisher) using a Multidrop™ Combi Reagent Dispenser (Thermo-Fisher) and pre-incubated with compounds for 10 min. BNAH (200 μM) was then added (3 μL) to the reaction using a BioNex Solutions BNX 1536 plate washer and the plates were incubated for another 10 min. […] The initial HTS was done with approximately 200,000 compounds at a single concentration of 5 μM. The chemical libraries used were Selleck Chemicals Bioactives, the Drug-like set from Enamine, HitFinder collection from Maybridge, Spectrum Collection from Microsource, Lopac from Sigma-Aldrich and the diversity sets from ChemDiv and ChemBridge. Initial “hit” compounds were defined as causing >30% reduction of enzyme activity. […] “Hit” compounds resulting from both the fluorescence and absorbance assay were tested in a dose-response, and median inhibition concentration (IC50) values were determined. In parallel, the same dose response was used in a selectivity assay where QR2 enzyme was replaced by QR1 (also known as—NQO1, 10 nM; Sigma-Aldrich).
(§4) In order to establish a varied, flexible and chemically amenable starting point from which to develop such inhibitors, the inventors ran a standardized QR2 assay (see methods) against ˜200,000 compounds, from a varied assortment of chemical libraries.

QR2 [3] = target: T2, QR2; assay: QR2 enzymatic activity assay (menadione/BNAH), absorbance readout at 350 nm; parameters: purchased Sigma-Aldrich
Method: as §3, §4

QR1 (NQO1) [4] = target: T1, QR1 (NQO1); assay: Selectivity assay with QR1 in place of QR2, fluorescence readout
Method: as §1, §2

T1 sequence (P15559 whole entry): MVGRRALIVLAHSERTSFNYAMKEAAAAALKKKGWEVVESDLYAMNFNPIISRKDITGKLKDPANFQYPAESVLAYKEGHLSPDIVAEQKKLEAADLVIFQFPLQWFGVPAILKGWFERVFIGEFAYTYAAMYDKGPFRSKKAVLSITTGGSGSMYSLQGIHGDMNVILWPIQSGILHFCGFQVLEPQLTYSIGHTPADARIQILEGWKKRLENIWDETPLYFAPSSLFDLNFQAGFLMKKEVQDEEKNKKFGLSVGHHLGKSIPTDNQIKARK

Row | Compound | IC50 (QR1 (NQO1) [1]) | IC50 (QR2 [2]) | IC50 (QR2 [3]) | IC50 (QR1 (NQO1) [4])
1 | CCOC(=O)c1c(S(=O)(=O)N(CCC(C)C)Cc2ccco2)c(C)n(C)c1C [PCM-0120203] | > 9.9 µM | 8.21 µM | 8.53 µM | 3.79 µM
2 | Cc1ccc(-c2nnc(-c3ccccc3)o2)cc1S(=O)(=O)N1CCCC1 [PCM-0213805] | > 9.99 µM | 1.48 µM | 0.25 µM | > 9.99 µM
3 | CCCn1cc(C2=CCN(S(=O)(=O)Cc3ccccc3)CC2)c2cccnc21 [PCM-0105851] | > 9.99 µM | > 9.9 µM | 9.05 µM | > 9.9 µM
4 | Cc1ccn2cc(-c3cccc(S(=O)(=O)N4CCCCCC4)c3)nc2c1 [PCM-0213798] | > 9.99 µM | 1.27 µM | 0.41 µM | > 9.99 µM
5 | Cc1nc(-c2ccc(C)c(S(=O)(=O)NCCCN3CCCC3=O)c2)cs1 [PCM-0213793] | > 9.99 µM | 5.45 µM | 2.91 µM | > 9.99 µM
6 | Cc1ccn2cc(-c3ccc(C)c(S(=O)(=O)N4CCCC4)c3)nc2c1 [PCM-0213809] | > 9.99 µM | 0.51 µM | 0.18 µM | > 9.99 µM
7 | COCC1CN(S(=O)(=O)Cc2ccccc2)CC12CCNCC2 (stereo not shown) [PCM-0109036] | > 9.99 µM | > 9.9 µM | > 9.99 µM | > 9.9 µM
8 | N#Cc1nc(-c2ccc(S(=O)(=O)N3CCCC3)cc2)oc1NCCCN1CCOCC1 [PCM-0172736] | > 9.99 µM | < 0.83 µM | > 9.99 µM | < 0.83 µM
9 | CCCS(=O)(=O)N1CCCc2cc(NC(=O)c3ccco3)ccc21 [PCM-0120563] | > 9.99 µM | > 9.9 µM | > 9.99 µM | > 9.9 µM
10 | CCc1noc(-c2c(S(=O)(=O)NCc3cccc(OC)c3)c(C)n(C)c2C)n1 [PCM-0200337] | > 9.99 µM | > 9.9 µM | 8.09 µM | > 9.9 µM
11 | CS(=O)(=O)N(C1CC1)C1CCOC2(CCN(C(=O)C3(c4ccccc4)CC3)CC2)C1 (stereo not shown) [PCM-0207818] | > 9.99 µM | > 9.9 µM | > 9.99 µM | > 9.9 µM
12 | COc1ccc(S(=O)(=O)N2CCC(NC(=O)N3CCCC3)CC2)cc1 [PCM-0154188] | > 9.99 µM | 2.06 µM | 3.83 µM | > 9.9 µM
13 | Cc1cc(-c2ccc(C)c(S(=O)(=O)N3CCC(C)CC3)c2)n[nH]1 [PCM-0213799] | > 9.99 µM | 0.9 µM | 0.27 µM | > 9.99 µM
14 | Cc1c(-c2nnc(C3CCC3)o2)c(S(=O)(=O)NCc2ccc(Cl)cc2)c(C)n1C [PCM-0128885] | > 9.99 µM | > 9.9 µM | > 9.99 µM | > 9.9 µM
15 | Cc1ccn2cc(-c3cccc(S(=O)(=O)N4CC(C)CC(C)C4)c3)nc2c1 (stereo not shown) [PCM-0124575] | > 9.99 µM | 2.18 µM | 1.22 µM | > 9.9 µM
16 | Cc1cccn2cc(-c3cccc(S(=O)(=O)Nc4ccc(Cl)cc4)c3)nc12 [PCM-0213788] | > 9.99 µM | 3.04 µM | 0.05 µM | > 9.99 µM
17 | COc1ccc(O)cc1NC(=O)c1oc2ccc(S(=O)(=O)N3CCCC3)cc2c1C [PCM-0193675] | > 9.99 µM | > 9.9 µM | > 9.99 µM | > 9.9 µM
18 | Cc1ccc2nc(-c3cccc(S(=O)(=O)N4CC(C)OC(C)C4)c3)cn2c1 (stereo not shown) [PCM-0124655] | > 9.99 µM | 4.42 µM | 3.03 µM | > 9.9 µM
19 | CCCN(CCC)S(=O)(=O)c1cccc(-c2cn3cccc(C)c3n2)c1 [PCM-0124772] | > 9.99 µM | 0.83 µM | 0.75 µM | > 9.9 µM
20 | Cc1nc(-c2ccc(C)c(S(=O)(=O)N3CCC(C)CC3)c2)cs1 [PCM-0197104] | > 9.99 µM | 7.4 µM | 4.58 µM | > 9.99 µM
21 | Cc1ccn2cc(-c3cccc(S(=O)(=O)NCc4cccnc4)c3)nc2c1 [PCM-0213812] | 8.6 µM | 9.62 µM | 0.75 µM | > 9.99 µM
22 | COc1ccc(OC)c(S(=O)(=O)Nc2cccc(-c3cn4c(C)csc4n3)c2)c1 [PCM-0121306] | > 9.99 µM | 0.83 µM | 2.03 µM | 8.77 µM
23 | O=c1n(Cc2ccc(Cl)cc2)nc2ccc(S(=O)(=O)N3CCCCC3)cn12 [PCM-0140113] | > 9.99 µM | > 9.9 µM | > 9.99 µM | > 9.9 µM
24 | Cc1cc(-c2ccc(C)c(S(=O)(=O)N3CCN(C(=O)c4ccco4)CC3)c2)n[nH]1 [PCM-0213791] | > 9.99 µM | 0.26 µM | 0.08 µM | > 9.99 µM
25 | Cc1cc(-c2ccc(C)c(S(=O)(=O)N(C)C)c2)n[nH]1 [PCM-0213802] | > 9.99 µM | 0.39 µM | 0.16 µM | > 9.99 µM
26 | Cc1ccc(-c2nnc(-c3ccccc3)o2)cc1S(=O)(=O)N1CCC(C)CC1 [PCM-0127586] | > 9.99 µM | 5.97 µM | 1.2 µM | > 9.99 µM
27 | Cc1ccc(-c2nnc(-c3ccccc3)o2)cc1S(=O)(=O)NCc1cccnc1 [PCM-0213813] | > 9.99 µM | 6.49 µM | 1.17 µM | > 9.99 µM
28 | COc1cc(Cl)c(NS(=O)(=O)c2ccc(-c3cc(C)no3)cc2OC)c(OC)c1 [PCM-0131156] | > 9.99 µM | 3.82 µM | 2.73 µM | > 9.9 µM
